{"source": "patent US8227468B2", "about": "“Cathepsin S inhibitor compounds” (Eli Lilly and Company, priority 2010, dated 2012)", "key": {"[1]": {"test_system": "CaCl2-induced AAA (aortic luminal perimeter)", "test": "CaCl2-induced AAA Animal Efficacy Model", "assay_type": "in vivo, mouse", "conditions": "for In Vivo Percentage (%) Reduction of AAA: 129SvEv mice, aortic luminal perimeter by ultrasound, mean ± SD", "description": "The first dose is given one day prior to surgery (p.m.) and the second dose is given the morning of surgery. […] B.i.d. dosing (a.m. and p.m.) is continued the day after surgery for 28 days. On the day of surgery, animals received analgesia ([…]®, 0.1 mg/kg) subcutaneously 10 min. pre-operatively and 3 hr. post-operatively. Mice are anesthetized by inhalation of 2% isoflurane and a laparotomy is performed. The abdominal aorta is exposed by retracting the bowel laterally with a surgical retractor and leaving the bowel in the abdominal cavity. […] Once isolated, the region of interest of the abdominal aorta is wrapped with a premeasured sterile cotton gauze soaked in 0.25 M aqueous CaCl2 solution. In sham control animals, 0.9% saline is substituted for CaCl2. After 7 min., the gauze is removed and a second CaCl2 soaked gauze (or 0.9% saline soaked gauze in sham animals) is applied. Following a second 7 minute period, the gauze is removed, the aorta is rinsed with 0.9% saline and the abdomen is closed. […] After 4 weeks of dosing as described above, the aortic luminal perimeter, area and diameter of the aortic segments that were wrapped with gauze are determined by ultrasound (Biosound Ultrasound-7.5 MHz) and statistically analyzed with JMP® 7 software (Cary, N.C.)."}, "[2]": {"target": "human cathepsin B (Homo sapiens, UniProt P07858)", "test": "human cathepsin B enzyme inhibitor (selectivity) assay", "assay_type": "biochemical", "description": "(§1) Potency assays for human cathepsin S and mouse cathepsin S and selectivity assays for human cathepsins L, B, K, V, and F are described below. The experimental conditions and/or materials of each assay differ slightly and therefore such differences are noted either directly within the general assay conditions or coded according to the respective enzyme assay using designations 1a through 1 g in Table 1 immediately following the general assay conditions.\n(§2) Test compounds are prepared in DMSO to make up a 10 mM stock solution. The stock solution is serially diluted in DMSO to obtain a ten-point dilution curve with a final compound concentration range 1a in a 96-well round-bottom plate before conducting the in vitro enzymatic assay.\n(§3) Amount 1c of substrate, benzyloxycarbonyl-L-leucyl-L-arginine-4-methyl-coumaryl-7-amide (Peptide Institute), prepared in assay buffer, is added to each well of the plate for a final concentration 1d. Amount 1e of the respective enzyme, described immediately hereafter, prepared in assay buffer is added to each well of the plate containing substrate and test compound resulting in a final concentration 1f to initiate the reaction. • Human cathepsins S, L, K, and V: Obtained from Calbiochem. • Mouse cathepsin S: Briefly, mouse cathepsin S is cloned in baculovirus using a mCathepsin S-pAN51(T760) construct containing a histidine tag. […]"}, "[3]": {"target": "T1, human cathepsin V (Homo sapiens, UniProt O60911)", "T1 construct": "purchased Calbiochem", "T1 sequence (O60911 114-334)": "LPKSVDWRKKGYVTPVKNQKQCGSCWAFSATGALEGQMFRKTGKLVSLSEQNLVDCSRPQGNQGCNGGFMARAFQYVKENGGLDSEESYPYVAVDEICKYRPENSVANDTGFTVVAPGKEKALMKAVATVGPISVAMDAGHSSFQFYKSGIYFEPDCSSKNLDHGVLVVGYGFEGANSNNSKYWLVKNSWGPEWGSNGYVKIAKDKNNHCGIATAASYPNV", "test": "human cathepsin V enzyme inhibitor (selectivity) assay", "assay_type": "biochemical", "description": "as §1, §2, §3"}, "[4]": {"target": "T2, human cathepsin K (Homo sapiens, UniProt P43235)", "T2 construct": "purchased Calbiochem", "T2 sequence (P43235 115-329)": "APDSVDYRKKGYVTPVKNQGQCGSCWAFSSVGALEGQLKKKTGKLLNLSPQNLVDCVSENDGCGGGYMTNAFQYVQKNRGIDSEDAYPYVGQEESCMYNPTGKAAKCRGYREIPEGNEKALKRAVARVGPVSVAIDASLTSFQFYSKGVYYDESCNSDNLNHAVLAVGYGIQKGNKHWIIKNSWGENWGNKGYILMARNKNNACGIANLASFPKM", "test": "human cathepsin K enzyme inhibitor (selectivity) assay", "assay_type": "biochemical", "description": "as §1, §2, §3"}, "[5]": {"target": "T3, mouse cathepsin S (Mus musculus, UniProt O70370)", "T3 construct": "histidine tag; made in house", "test": "mouse cathepsin S enzyme inhibitor assay", "assay_type": "biochemical", "description": "as §1, §2, §3"}, "[6]": {"target": "T4, human cathepsin L (Homo sapiens, UniProt P07711)", "T4 construct": "purchased Calbiochem", "T4 sequence (P07711 114-333)": "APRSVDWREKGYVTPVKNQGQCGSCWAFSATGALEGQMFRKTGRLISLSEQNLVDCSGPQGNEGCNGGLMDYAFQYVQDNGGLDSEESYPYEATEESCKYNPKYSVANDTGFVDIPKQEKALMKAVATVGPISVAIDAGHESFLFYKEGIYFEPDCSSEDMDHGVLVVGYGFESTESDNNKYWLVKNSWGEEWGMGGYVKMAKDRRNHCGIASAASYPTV", "test": "human cathepsin L enzyme inhibitor (selectivity) assay", "assay_type": "biochemical", "description": "as §1, §2, §3"}, "[7]": {"test_system": "p10 in PWBC", "test": "p10 Accumulation Assay", "assay_type": "in vivo, mouse", "conditions": "4 hr.; for In vivo relative p10 accumulation in PWBC: mice, relative to vehicle, normalized with tubulin, mean ± SD", "description": "After 4 hr., whole blood (300-500 μL) is drawn from each mouse. The step of removing red blood cells is performed by adding one mL Flow Cytometry Lysing Solution™ (Santa Cruz Biotechnology, Inc.), keeping at room temperature for 10 min., centrifuging at 4000 rpm for 5 min. and then discarding the supernatant. This step is repeated once to remove the red blood cells completely. The PWBC pellet is resuspended with 50 μL CytoBuster™ Reagent (Novagen) and sonicated at high power for 5-10 sec.\nThe p10 amount is determined using a Western blot. […] Gels are run at 120 V for 60 min. with the NUPAGE® MES SDS running buffer (Invitrogen). Proteins are transferred to 0.2 μm nitrocellulose (BIO-RAD) at 100 V for 30 min. with NUPAGE® Transfer Buffer (Invitrogen) and 20% methanol (EMD). Blot is briefly rinsed with PBS and blocked in 10 mL in ODYSSEY® Blocking Buffer (LI-COR Biosciences) at room temperature for 60 min. For p10, the blot is incubated with primary antibody against mouse CD74 (1 μg/ml of rat anti-CD74 antibody)(BD Bioscience) in blocking buffer at 4° C. overnight. For tubulin control, the blot is incubated with rabbit anti-beta tubulin pAb (0.2 μg/ml)(Abcam) in blocking buffer at 4° C. overnight. The blot is washed with washing buffer (DPBS from HyClone) with 0.01% polysorbate 20 four times for 10 min. each. The blot is then incubated with secondary antibody at room temperature for 60 min. For p10, ALEXA FLUOR® 680 goat anti rat IgG (1:5000 dilution)(Invitrogen) is used. For tubulin, ALEXA FLUOR® 680 goat anti rabbit IgG (1:5000 dilution)(Invitrogen). The blot is again washed as described above and placed in PBS for scanning.\nThe images are captured by scanning on an ODYSSEY® Infrared Imager (LI-COR Biosciences). The p10 amount is analyzed with ODYSSEY® software and normalized with the tubulin amount. The data are statistically analyzed with JMP® 7 software (Cary, N.C.). Values are represented as means±standard deviation."}, "[8]": {"target": "T5, human cathepsin S (Homo sapiens, UniProt P25774)", "T5 construct": "purchased Calbiochem", "T5 sequence (P25774 115-331)": "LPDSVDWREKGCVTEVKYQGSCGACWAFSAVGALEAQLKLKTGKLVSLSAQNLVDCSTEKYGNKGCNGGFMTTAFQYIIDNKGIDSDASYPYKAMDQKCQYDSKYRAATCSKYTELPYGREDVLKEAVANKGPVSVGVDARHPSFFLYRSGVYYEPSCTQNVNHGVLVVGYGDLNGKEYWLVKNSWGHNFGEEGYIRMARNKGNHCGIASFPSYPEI", "test": "human cathepsin S enzyme inhibitor assay", "assay_type": "biochemical", "description": "as §1, §2, §3"}}}
{"smiles": "CNC(=O)O[C@H]1CCc2ccc(N3CCN(C4COC4)CC3)cc2[C@@H]1NC(=O)c1ccc(F)cc1", "note": "[Example 2, [(1S,2S)-1-[(4-Fluorobenzoyl)amino]-7-[4-(oxetan-3-yl)piperazin-1-yl]tetralin-2-yl] N-methylcarbamate]", "values": [{"measurement": "In Vivo Percentage (%) Reduction of AAA", "setting": "[1]; 1 mg/kg oral gavage b.i.d. 4 weeks", "result": "11 ± 7", "unit": "%"}, {"measurement": "In Vivo Percentage (%) Reduction of AAA", "setting": "[1]; 3 mg/kg oral gavage b.i.d. 4 weeks", "result": "32 ± 9", "unit": "%"}, {"measurement": "In Vivo Percentage (%) Reduction of AAA", "setting": "[1]; 10 mg/kg oral gavage b.i.d. 4 weeks", "result": "43 ± 9", "unit": "%"}, {"measurement": "In Vivo Percentage (%) Reduction of AAA", "setting": "[1]; 30 mg/kg oral gavage b.i.d. 4 weeks", "result": "52 ± 7", "unit": "%"}, {"measurement": "effect on aortic luminal perimeter (in words)", "setting": "[1]; 1-30 mg/kg oral b.i.d. 4 weeks", "result": "reduce the aortic luminal perimeter in a dose-dependent manner"}, {"measurement": "IC50", "setting": "[2]", "result": "~94", "unit": "µM"}, {"measurement": "IC50", "setting": "[3]", "result": "> 100", "unit": "µM"}, {"measurement": "IC50", "setting": "[4]", "result": "> 100", "unit": "µM"}, {"measurement": "IC50", "setting": "[5]", "result": "~0.0039", "unit": "µM"}, {"measurement": "IC50", "setting": "[6]", "result": "> 167", "unit": "µM"}, {"measurement": "In vivo relative p10 accumulation in PWBC", "setting": "[7]; 3 mg/kg oral gavage", "result": "1.1 ± 0.7", "unit": "fold increase"}, {"measurement": "In vivo relative p10 accumulation in PWBC", "setting": "[7]; 10 mg/kg oral gavage", "result": "2.2 ± 1.3", "unit": "fold increase"}, {"measurement": "In vivo relative p10 accumulation in PWBC", "setting": "[7]; 30 mg/kg oral gavage", "result": "4.6 ± 1.2", "unit": "fold increase"}, {"measurement": "effect on p10 in PWBC (in words)", "setting": "[7]; 3-30 mg/kg oral", "result": "dose dependently increase p10 in PWBC"}, {"measurement": "IC50", "setting": "[8]", "result": "~0.0102", "unit": "µM"}]}
